Measurements: patent US7202261B2, “Calcilytic compounds” (NPS Pharmaceuticals, Inc., priority 1996, dated 2007)
Structures can show the parent of a compound that is named as a salt. Where two headings read alike, the source gives them in different places.

Molecular target: T1, human calcium receptor (Homo sapiens, UniProt P41180)
T1 construct: expressed in transfected cells
T1 sequence (P41180 20-1078): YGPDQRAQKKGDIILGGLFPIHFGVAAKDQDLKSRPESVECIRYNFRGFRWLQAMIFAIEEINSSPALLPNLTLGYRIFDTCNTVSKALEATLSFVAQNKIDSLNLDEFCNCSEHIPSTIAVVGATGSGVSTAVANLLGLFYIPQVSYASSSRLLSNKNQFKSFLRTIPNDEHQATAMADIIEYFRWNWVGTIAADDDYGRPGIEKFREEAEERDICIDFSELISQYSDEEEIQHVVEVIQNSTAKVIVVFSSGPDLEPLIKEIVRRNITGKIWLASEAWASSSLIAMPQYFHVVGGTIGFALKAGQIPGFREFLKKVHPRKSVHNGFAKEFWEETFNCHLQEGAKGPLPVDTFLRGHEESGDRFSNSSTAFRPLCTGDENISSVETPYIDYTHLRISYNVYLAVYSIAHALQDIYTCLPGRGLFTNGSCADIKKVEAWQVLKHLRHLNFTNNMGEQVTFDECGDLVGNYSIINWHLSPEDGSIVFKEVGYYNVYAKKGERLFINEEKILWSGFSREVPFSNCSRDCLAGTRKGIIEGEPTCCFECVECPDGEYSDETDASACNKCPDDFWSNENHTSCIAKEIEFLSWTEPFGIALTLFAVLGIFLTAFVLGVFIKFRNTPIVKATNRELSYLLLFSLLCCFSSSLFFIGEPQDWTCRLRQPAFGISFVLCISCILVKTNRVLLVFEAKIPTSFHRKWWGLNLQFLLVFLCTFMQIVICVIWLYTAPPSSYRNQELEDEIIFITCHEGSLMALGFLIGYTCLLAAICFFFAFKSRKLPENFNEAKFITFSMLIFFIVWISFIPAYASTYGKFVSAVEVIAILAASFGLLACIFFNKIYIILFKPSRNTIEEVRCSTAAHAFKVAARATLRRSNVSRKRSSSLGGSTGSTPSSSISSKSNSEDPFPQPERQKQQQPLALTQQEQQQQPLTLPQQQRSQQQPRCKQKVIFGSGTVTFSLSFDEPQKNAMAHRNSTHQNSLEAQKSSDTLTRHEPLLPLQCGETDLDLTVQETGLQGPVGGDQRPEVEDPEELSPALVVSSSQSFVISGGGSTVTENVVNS
Experiment: Calcium Receptor Inhibitor Assay
Format: cell-based
Protocol: This example illustrates the use of the Calcium Receptor Inhibitor Assay. […] Res. 10 Suppl. […] Intracellular Ca^2+ was measured using fluo-3, a fluorescent calcium indicator.
The procedure was as follows:
1. Cells were maintained in T-150 flasks in selection media (DMEM supplemented with 10% fetal bovine serum and 200 μg/mL hygromycin B), under 5% CO2:95% air at 37° C. and were grown up to 90% confluency.
2. The medium was decanted and the cell monolayer was washed twice with phosphate-buffered saline (PBS) kept at 37° C. After the second wash, 6 mL of 0.02% EDTA in PBS was added and incubated for 4 minutes at 37° C. Following the incubation, cells were dispersed by gentle agitation.
3. Cells from 2 or 3 flasks were pooled and pelleted (100×g). The cellular pellet was resuspended in […] of SPF-PCB+ and pelleted again by centrifugation. This washing was done twice.
SPF-PCB was made up and stored at 4° C. On the day of use, SPF-PCB was supplemented with 1 mg/mL of D-glucose and 1 mM CaCl2 and then split into two fractions. To one fraction, bovine serum albumin (BSA; fraction V, ICN) was added at 5 mg/mL (SPF-PCB+). This buffer was used for washing, loading and maintaining the cells. The BSA-free fraction was used for diluting the cells in the cuvette for measurements of fluorescence.
5. Following the incubation period, the cells were pelleted by centrifugation. The resulting pellet was washed with SPF-PCB+. After this washing, cells were resuspended in SPF-PCB+ at a density of 1–2×10^6 cells/mL.
6. For recording fluorescent signals, 300 μL of cell suspension were diluted in 1.2 mL of SPF buffer containing 1 mM CaCl2 and 1 mg/mL of D-glucose. Measurements of fluorescence were performed at 37° C. with constant stirring using a spectrofluorimeter. […] To calibrate fluorescence signals, digitonin (5 mg/mL in ethanol) was added to obtain Fmax, and the apparent Fmin was determined by adding Tris-EGTA (2.5 M Tris-Base, 0.3 M EGTA).
7. To determine the potential calcilytic activity of test compounds, cells were incubated with test compound (or vehicle as a control) for 90 seconds before increasing the concentration of extracellular Ca^2+ from 1 to 2 mM. Calcilytic compounds were detected by their ability to block, in a concentration-dependent manner, increases in the concentration of intracellular Ca^2+ elicited by extracellular Ca^2+.

[1] = HEK 293 4.0–7 cells stably expressing the human calcium receptor, fluo-3, read-out: IC50 for blocking increases of intracellular Ca2+ elicited by extracellular Ca2+

COc1ccc(CC(C)(C)NCC(O)COc2cccc(Cl)c2)cc1 (stereo not drawn) [Compound 43, N-[2-Hydroxy-3-(3-chlorophenoxy)propyl]-1,1-dimethyl-2-(4-methoxyphenyl)ethylamine Hydrochloride]
IC50 [1]: < 1 µM

COc1ccc(CC(C)(C)NCC(O)COc2ccc(F)cc2)cc1 (stereo not drawn) [Compound 44, N-[2-Hydroxy-3-(4-fluorophenoxy)propyl]-1,1-dimethyl-2-(4-methoxyphenyl)ethylamine Hydrochloride]
IC50 [1]: < 1 µM

COc1ccc(CC(C)(C)NCC(O)COc2cccc(C)c2)cc1 (stereo not drawn) [Compound 45, N-[2-Hydroxy-3-(3-methylphenoxy)propyl]-1,1-dimethyl-2-(4-methoxyphenyl)ethylamine Hydrochloride]
IC50 [1]: < 10 µM

COc1ccc(CC(C)(C)NCC(O)COc2cccc(C(F)(F)F)c2)cc1 (stereo not drawn) [Compound 46, N-[2-Hydroxy-3-(3-trifluoromethylphenoxy)propyl]-1,1-dimethyl-2-(4-methoxyphenyl)ethylamine Hydrochloride]
IC50 [1]: < 1 µM

COc1ccc(CC(C)(C)NCC(O)COc2ccccc2C(F)(F)F)cc1 (stereo not drawn) [Compound 47, N-[2-Hydroxy-3-(2-trifluoromethylphenoxylpropyl]-1,1-dimethyl-2-(4-methoxyphenyl)ethylamine Hydrochloride]
IC50 [1]: < 1 µM

COc1ccc(CC(C)(C)NCC(O)COc2ccccc2C(C)(C)C)cc1 (stereo not drawn) [Compound 48, N-[2-Hydroxy-3-(2-t-butylphenoxy)propyl]-1,1-dimethyl-2-(4-methoxyphenyl)ethylamine Hydrochloride]
IC50 [1]: < 10 µM

COc1ccc(CC(C)(C)NCC(O)COc2ccccc2OC)cc1 (stereo not drawn) [Compound 49, N-[2-Hydroxy-3-(2-methoxyphenoxy)propyl]-1,1-dimethyl-2-(4-methoxyphenyl)ethylamine Hydrochloride]
IC50 [1]: < 10 µM

COc1ccc(CC(C)(C)NCC(O)COc2cccc(C(C)(C)C)c2)cc1 (stereo not drawn) [Compound 50, N-[2-Hydroxy-3-(3-t-butylphenoxy)propyl]-1,1-dimethyl-2-(4-methoxyphenyl)ethylamine Hydrochloride]
IC50 [1]: < 1 µM

COc1ccc(CC(C)(C)NCC(O)COc2ccc(C(F)(F)F)cc2)cc1 (stereo not drawn) [Compound 51, N-[2-Hydroxy-3-(4-trifluoromethylphenoxy)propyl]-1,1-dimethyl-2-(4-methoxyphenyl)ethylamine Hydrochloride]
IC50 [1]: < 1 µM

COc1ccc(CC(C)(C)NCC(O)COc2ccccc2NC(C)=O)cc1 (stereo not drawn) [Compound 52, N-[2-hydroxy-3-(2-acetamidophenoxy)propyl]-1,1-dimethyl-2(4-methoxyphenyl)ethylamine]
IC50 [1]: > 50 µM

COc1ccc(CC(C)(C)NCCOc2ccccc2)cc1 [Compound 53, N-(2-phenoxyethyl)-1,1-dimethyl-2-(4-methoxyphenyl)ethylamine]
IC50 [1]: > 50 µM

CC(C)(Cc1ccccc1)NCC(O)COc1ccc(C(C)(C)C)cc1 (stereo not drawn) [Compound 54]
IC50 [1]: > 50 µM

CC(C)(Cc1ccccc1)NCC(O)COc1cccc2ccccc12 (stereo not drawn) [Compound 55, N-[2-hydroxy-3-(1-naphthoxy)propyl]-1,1-dimethyl-2-phenylethylamine]
IC50 [1]: > 50 µM

CC(C)(Cc1ccccc1)NCC(O)COc1ccccc1 (stereo not drawn) [Compound 56, N-(2-Hydroxy-3-phenoxypropyl)-1,1-dimethyl-2-phenylethylamine Hydrochloride]
IC50 [1]: < 50 µM

COc1ccc(CC(C)(C)NCC(O)COc2ccc(NC(C)=O)cc2)cc1 (stereo not drawn) [Compound 58, N-[2-hydroxy-3-(4-acetamidophenoxy)propyl]-1,1-dimethyl-2(4-methoxyphenyl)ethylamine]
IC50 [1]: > 50 µM

COc1ccc(CC(C)(C)NCC(COc2ccccc2)OC)cc1 (stereo not drawn) [Compound 59, N-(2-Methoxy-3-phenoxypropyl)-1,1-dimethyl-2-(4-methoxyphenyl)ethylamine Hydrochloride]
IC50 [1]: < 10 µM

COc1ccc(CC(C)(C)NCC(O)COc2ccccc2-c2ccccc2)cc1 (stereo not drawn) [Compound 60, N-[2-hydroxy-3-(2-phenylphenoxy)propyl]-1,1-dimethyl-2-(4-methoxyphenyl)ethylamine]
IC50 [1]: > 50 µM

COc1ccc(CC(C)(C)NCC(O)COc2cccc(-c3ccccc3)c2)cc1 (stereo not drawn) [Compound 61, N-[2-hydroxy-3-(3-phenylphenoxy)propyl]-1,1-dimethyl-2-(4-methoxyphenyl)ethylamine]
IC50 [1]: < 10 µM

COc1ccc(CC(C)(C)NCC(O)COc2ccc(-c3ccccc3)cc2)cc1 (stereo not drawn) [Compound 62, N-[2-Hydroxy-3-(4-phenylphenoxy)propyl]-1,1-dimethyl-2-(4-methoxyphenyl)ethylamine]
IC50 [1]: > 50 µM

CCCCCCCCOCC(O)CNC(C)(C)Cc1ccc(OC)cc1 (stereo not drawn) [Compound 65, N-(2-Hydroxy-3-octanoxypropyl)-1,1-dimethyl-2-(4-methoxyphenyl)ethylamine]
IC50: < 1 µM

CCCCCCOCC(O)CNC(C)(C)Cc1ccc(OC)cc1 (stereo not drawn) [Compound 66, N-(2-Hydroxy-3-hexanoxypropyl)-1,1-dimethyl-2-(4-methoxyphenyl)ethylamine]
IC50: < 10 µM

CCCCCCCCCCOCC(O)CNC(C)(C)Cc1ccc(OC)cc1 (stereo not drawn) [Compound 67, N-(2-Hydroxy-3-decanoxypropyl)-1,1-dimethyl-2-(4-methoxyphenyl)ethylamine]
IC50 [1]: < 1 µM

COc1ccc(CC(C)(C)NCC(O)CSc2ccccc2)cc1 (stereo not drawn) [Compound 68, N-(2-Hydroxy-3-thiophenylpropyl)-1,1-dimethyl-2-(4-methoxyphenyl)ethylamine]
IC50: < 10 µM

CCCCCCCCC(O)CNC(C)(C)Cc1ccc(OC)cc1 (stereo not drawn) [Compound 69, N-(2-Hydroxydecanyl)-1,1-dimethyl-2-(4-methoxyphenyl)ethylamine]
IC50: < 1 µM

CCCCCCCCCCC(O)CNC(C)(C)Cc1ccc(OC)cc1 (stereo not drawn) [Compound 70, N-(2-Hydroxydodecanyl)-1.1-dimethyl-2-(4-methoxyphenyl)ethylamine]
IC50: > 50 µM

C=CCCCCCCC(O)CNC(C)(C)Cc1ccc(OC)cc1 (stereo not drawn) [Compound 71, N-(2-Hydroxydec-9-enyl)-1,1-dimethyl-2-(4-methoxyphenyl)ethylamine]
IC50: < 10 µM

CCCCCCCCCCCCOCC(O)CNC(C)(C)Cc1ccc(OC)cc1 (stereo not drawn) [Compound 72, N-(3-Dodecanoxy-2-hydroxypropyl)-1,1-dimethyl-2-(4-methoxyphenyl)ethylamine]
IC50 [1]: < 1 µM

COc1ccc(CC(C)(C)NCC(O)COCC23CC4CC(CC(C4)C2)C3)cc1 (stereo not drawn) [Compound 74, N-[2-Hydroxy-3-(1-adamantylmethoxy)propyl]-1,1-dimethyl-2-(4-methoxyphenyl)ethylamine Hydrochloride]
IC50 [1]: < 1 µM

COc1ccc(CC(C)(C)NCC(O)COCC2CCCCC2)cc1 (stereo not drawn) [Compound 75, N-(2-Hydroxy-3-cyclohexylmethoxypropyl)-1,1-dimethyl-2-(4-methoxyphenyl)ethylamine Hydrochloride]
IC50: < 10 µM

COc1ccc(CC(C)(C)NCC(O)CCc2ccccc2)cc1 (stereo not drawn) [Compound 79, N-(2-Hydroxy-4-phenylbutyl)-1,1-dimethyl-2-(4-methoxyphenyl)ethylamine Hydrochloride]
IC50: < 50 µM
